From publication PMC5601180, “Uptake and metabolism of sulphated steroids by the blood–brain barrier in the adult male rat” (Journal of Neurochemistry, 2017)
Read-outs that look alike come from different tables or passages of the source.

Assays:
[1] = rats, ref Kishimoto and Hoshi (1972), cited from earlier work
[2] = TLC analysis of 3H-steroid metabolites in brain fractions after perfusion; assay type: in vivo, rat; details: after 0.5 min perfusion with the 3H-steroid sulphate
Excerpt: For the analysis of ^3H‐steroid metabolites, samples were spotted onto TLC plates for chromatography in the following solvent systems: A (for sulphated steroids), ethyl acetate:ethanol:ammonia (5 : 5 : 1, v/v); B (for free steroids) cyclohexane:n‐butyl acetate (1 : 2, v/v); C (for acetylated steroids), isooctane:ethyl acetate (13 : 7, v/v). Non‐radioactive steroid standards could be visualised by exposure to iodine vapour whereas the ^3H‐steroids were detected by placing the TLC plates in contact with imaging film for subsequent visualisation in a phosphorimager. Additional analysis of the steroid sulphates employed elution from the TLC plate in ammoniated ethanol then drying down and redissolving in sodium acetate buffer, 0.5 M, pH 5.0 for desulphation by incubation with Helix sulphatase (1 mg/mL, 40°C overnight followed by 55°C for 3 h). The resulting free steroids were adsorbed onto a 60 mg Oasis HLB® cartridge and eluted in 5 mL ethyl acetate. This eluate was dried down and analysed by TLC as above for free steroids. Further identification of ^3H‐steroid metabolites was obtained by acetylating them alongside both ^3H‐labelled and non‐radioactive standards. The TLC eluates or standards were dried down and redissolved in 200 μL pyridine. An equal volume of acetic anhydride was then added followed by incubation at 37°C for 2 h. […]

[3] = Bilateral brain perfusion, capillary depletion and separation of free and sulphated 3H-steroids; assay type: in vivo, rat
Protocol: Brains were bilaterally perfused for 0.5 min with ^3H‐labelled DHEAS 1.25 or 6.0 μCi (0.046 or 0.221 MBq)/mL (13.5 or 64.9 nM) or PregS 1.0 μCi (0.037 MBq)/mL (47.6 nM). The hindbrain was removed and each hemisphere homogenised in 2 vols (w/v) buffer containing (in mM) NaCl 141, KCl 4, NaH2PO4 1, CaCl2 2.8, MgCl2 1, HEPES 10, D‐glucose 10, pH 7.4. A sample of the homogenate of the whole right hemisphere was removed for scintillation counting, and the remainder retained as the whole brain homogenate.
The left hemisphere homogenate was separated into capillary‐enriched and capillary‐depleted fractions by the method of Triguero et al. (1990). For this, an equal volume of 26% dextran (w/w) solution was added to the homogenate and a sample taken for liquid scintillation counting before centrifugation at 5300 g for 15 min at 4°C. The upper layer was taken as the capillary‐depleted fraction and the pellet as the capillary‐enriched fraction.
Before extraction, fractions were sonicated in 5 vols ice‐cold, 5 mM potassium phosphate buffer, pH 7. Small portions (150 μL) were removed for measurement of protein content (Bradford 1976) and total radioactivity. For the latter, homogenate was solubilised (15 min, 20°C) in 10 vols Soluene then bleached (2 h, 50°C) with 0.3 vol hydrogen peroxide before counting in Ecoscint H containing Triton X‐100 (6% v/v), glacial acetic acid (0.6% v/v) and butylated hydroxytoluene (2% w/v). The remainder of each homogenate was extracted as described in detail elsewhere (Ebner et al. 2006; Sujkovic et al. 2009), to give free steroid and steroid sulphate fractions. First, homogenates were extracted into 20 vols ethanol containing acetic acid 3% (v/v). After centrifugation (28 000 g, 30 min, 25°C) to remove denatured protein, the extracts were delipidated by partitioning three times against 10 vols isooctane. Extracts were dried down under vacuum and redissolved in ethanol, which was then diluted to 20% v/v in 5 mM potassium phosphate buffer, pH 7.0 at a total volume of 20 ml. Separation of free and sulphated steroids was achieved by passage through a 60 mg Oasis MAX® cartridge. After washing the cartridge with 5 mL ethanol at 20% v/v in ammonium acetate (20 mM, pH 7), free steroids were eluted in 4 mL ethyl acetate. Passage of 20 mL ethanol at 60% v/v in formate/pyridine buffer (20 mM, pH 3) eluted any steroid glucuronides present. Finally, steroid sulphates were eluted in 30 mL 60% v/v ethanol containing ammonium carbonate 1% (w/v). To measure the radioactivity of each fraction, portions were dried down and then redissolved in Ecoscint H for counting. The remainder was dried down, redissolved in ethanol 96% v/v and stored at −20°C for subsequent analysis by TLC.

[4] = Rat brain perfusion in situ: uptake of 3H-steroid sulphates and markers (Vd, Kin, PS); details: for K in, unidirectional transfer coefficient: 0.5 min perfusion, corrected for vascular space (sucrose Vd), n ≥ 3
Protocol: Each animal also received intraperitoneal heparin, 10 000 U/kg. Body temperature was maintained at 37°C with a heating pad.
For analysis of free and sulphated steroids and for steryl‐sulfate sulfohydrolase (EC 3.1.6.2; trivial name steroid sulphatase) assays, both hemispheres were perfused, via right and left common carotid arteries, and 0.8 mM MgCl2 replaced 0.8 mM MgSO4 in the solution. The perfusate was delivered at a constant rate of 6 mL/min for hemi‐perfusions and 12 mL/min for bilateral perfusions, maintaining a net perfusion pressure of 40–70 mm Hg.
The remaining tissue of the right hemisphere was homogenised and samples (~50 mg) taken in triplicate (“remainder samples”). Triplicate samples of the perfusate were also taken. Samples were weighed into vials and dissolved (48 h at 20°C) in 0.5 mL Solvable before addition of 4.5 mL Optiphase 2 scintillation fluid for counting of radioactivity.
Brain uptake was calculated as a volume of distribution V d, where V d (μL/g) = (dpm/g tissue)/(dpm/μL perfusate). The unidirectional transfer coefficients, (K in, μL/g/min), for DHEAS and for PregS were calculated from the V d at 0.5 min, corrected with the V d for the vascular space marker sucrose.

[5] = after intracerebral injection, rats; ref Asaba et al. (2000); cited from earlier work
[6] = after 0.5 min bilateral perfusion, mean ± SEM, n = 5

C[C@]12CC[C@H](OS(=O)(=O)O)CC1=CCC1C2CC[C@]2(C)C(=O)CCC12 (some centres unmarked) [DHEAS, dehydroepiandrosterone sulphate]
radiolabel accumulating as free steroid in the brain ([1]; intracardiac injection): ~50%
radiolabel accumulating as free steroid in the brain ([1]; intracerebral injection): 5%
metabolism in brain fractions [2]: underwent 17‐hydroxylation to form androstenediol in both the steroid sulphate and the free steroid fractions, with some additional formation of androstenedione in the latter
radioactivity in capillary fraction [3, 6]: 3451 ± 511 dpm/mg protein
radioactivity in parenchyma fraction [3, 6]: 3279 ± 388 dpm/mg protein
recovery of total homogenate radioactivity into capillary fraction [3, 6]: 2.2 ± 0.3%
recovery of total homogenate radioactivity into parenchyma fraction [3, 6]: 25.7 ± 2.3%
percentage of 3H-label as free steroid, parenchyma versus capillary ([3]; after 0.5 min perfusion, Fig. 4, p < 0.02): significantly higher percentage of the free steroid in the parenchyma than in the brain capillaries
desulphation on uptake into brain ([3]; within 0.5 min of uptake, brain perfusion in situ): > 50%
K in, unidirectional transfer coefficient ([4]; Cerebellum, mean ± SEM): 38.6 ± 7.0 µL/g/min
K in, unidirectional transfer coefficient ([4]; Hippocampus, mean ± SEM): 45.4 ± 3.4 µL/g/min
K in, unidirectional transfer coefficient ([4]; Hypothalamus, mean ± SEM): 57.7 ± 2.7 µL/g/min
K in, unidirectional transfer coefficient ([4]; Medulla, mean ± SEM): 39.4 ± 8.9 µL/g/min
position of log PS in plot against cLog Poct relative to the line for passively permeating compounds ([4]; PS from K in as slope of Vd against time 0.25 to 0.5 min, implies net efflux): below the 95% confidence limits of the line of best fit for passively permeating compounds
K in, unidirectional transfer coefficient ([4]; Parietal cortex, mean ± SEM): 38.4 ± 4.5 µL/g/min
K in, unidirectional transfer coefficient ([4]; Remainder of brain tissue, mean ± SEM): 44.8 ± 4.1 µL/g/min
K in, unidirectional transfer coefficient ([4]; Striatum, mean ± SEM): 47.2 ± 3.9 µL/g/min
K in, unidirectional transfer coefficient ([4]; Sup. colliculus, mean ± SEM): 63.5 ± 6.7 µL/g/min
V d, corrected for sucrose space (vascular volume), control ([4]; brain uptake after 0.5 min perfusion without inhibitors (control of Fig. 3), mean ± SEM, n = 3): 32.47 ± 2.03 µL/g
3H-label appearing in the jugular vein as unchanged steroid sulphate [5]: 90%
